Laboratory results published in ChEMBL document CHEMBL5236628 (J Med Chem, 2022).
Values after ≈ are worked out from the molar mass of the structure shown. Active and inactive are the calls of the source. No cut-off for these calls is given here.

Legend:
physchem = settings: buffer, pH 7.4
Plasmodium falciparum [1] = assay: microbe, parasite or virus in culture; settings: NF54, 72 h
Plasmodium falciparum [2] = assay: Antiplasmodial activity against multidrug resistant Plasmodium falciparum K1 incubated for 72 hrs by microplate reader assay; assay type: functional, organism-based; settings: K1, 72 h
[3] = Cytotoxicity against CHO cells measured after 48 hrs by MTT assay; settings: Chinese hamster
[4] = target: Voltage-gated inwardly rectifying potassium channel KCNH2 (Homo sapiens, UniProt Q12809); assay: Inhibition of human ERG expressed in CHO-K1 cells by Q-patch clamp assay
[5] = Selectivity index, ratio of IC50 for Plasmodium falciparum NF54 to IC50 for CHO cells; settings: hamster
Hemozoin = assay: Inhibition of Beta-hematin in Plasmodium falciparum NF54 assessed as hemozoin formation after 36 hrs by flow cytometry analysis
HepG2 = assay: Cytotoxicity against human HepG2 cells after 48 hrs by CellTiter Glo assay; assay type: toxicity, cell-based; settings: hepg2, 48 h

Sequence of Voltage-gated inwardly rectifying potassium channel KCNH2 (Q12809 whole entry): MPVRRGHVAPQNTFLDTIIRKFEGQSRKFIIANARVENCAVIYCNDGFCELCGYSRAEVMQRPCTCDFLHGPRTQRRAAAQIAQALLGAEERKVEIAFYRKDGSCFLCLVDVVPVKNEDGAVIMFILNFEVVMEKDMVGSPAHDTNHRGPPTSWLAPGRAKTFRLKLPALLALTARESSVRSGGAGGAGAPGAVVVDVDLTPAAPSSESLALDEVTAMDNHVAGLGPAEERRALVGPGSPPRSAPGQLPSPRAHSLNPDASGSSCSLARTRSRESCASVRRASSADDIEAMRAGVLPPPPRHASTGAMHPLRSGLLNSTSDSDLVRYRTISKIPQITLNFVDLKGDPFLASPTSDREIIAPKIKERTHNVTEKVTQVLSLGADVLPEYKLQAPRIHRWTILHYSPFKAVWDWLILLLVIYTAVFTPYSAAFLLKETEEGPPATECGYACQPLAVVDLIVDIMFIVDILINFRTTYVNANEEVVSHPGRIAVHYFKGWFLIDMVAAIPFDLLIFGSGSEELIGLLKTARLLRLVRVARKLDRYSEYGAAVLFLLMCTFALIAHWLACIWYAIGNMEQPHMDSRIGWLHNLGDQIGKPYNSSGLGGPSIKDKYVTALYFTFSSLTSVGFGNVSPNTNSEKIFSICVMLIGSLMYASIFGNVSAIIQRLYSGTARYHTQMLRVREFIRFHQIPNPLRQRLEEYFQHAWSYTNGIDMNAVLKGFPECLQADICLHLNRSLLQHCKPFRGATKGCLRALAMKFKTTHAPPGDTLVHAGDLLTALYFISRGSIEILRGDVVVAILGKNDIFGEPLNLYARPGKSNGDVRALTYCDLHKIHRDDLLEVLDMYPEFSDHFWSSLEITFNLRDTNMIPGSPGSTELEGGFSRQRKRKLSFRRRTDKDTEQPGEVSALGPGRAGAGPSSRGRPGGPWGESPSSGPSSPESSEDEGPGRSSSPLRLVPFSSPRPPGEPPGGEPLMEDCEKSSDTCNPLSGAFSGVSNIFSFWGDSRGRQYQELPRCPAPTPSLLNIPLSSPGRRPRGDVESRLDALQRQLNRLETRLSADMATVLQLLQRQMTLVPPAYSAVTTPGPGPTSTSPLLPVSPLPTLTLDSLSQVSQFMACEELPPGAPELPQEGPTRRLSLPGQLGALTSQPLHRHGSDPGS

| SMILES | solubility kinetic at 2 h (physchem) [µM] | IC50 (Plasmodium falciparum [1]) [nM] | other results |
| --- | --- | --- | --- |
| Cc1noc(-c2ccc(CCN3CCC(Nc4nc5ccccc5n4Cc4cccnc4)CC3)cc2)n1 | – | 304 | – |
| Cc1noc(-c2ccc(CCN3CCC(Nc4nc5cc(S(C)(=O)=O)ccc5n4C)CC3)cc2)n1 | 60 (≈ 29.7 µg/mL) | 4650 | – |
| Cc1noc(-c2ccc(CCN3CC4(CCN(c5nc6ccccc6n5Cc5ccc(C#N)cc5)C4)C3)cc2)n1 | 40 (≈ 21.2 µg/mL) | 446 | – |
| Cc1noc(-c2ccc(CCN3CCC(Nc4nc5ccccc5n4C)CC3)cc2)n1 | 160 (≈ 66.6 µg/mL) | 33 | IC50 (Plasmodium falciparum [2]): 82 nM; IC50 at 48 h ([3]; CHO cells): 9080 nM; IC50 [4]: 350 nM; selectivity ratio [5]: 275 |
| Cn1c(NC2CCN(CCc3ccc(C(=O)N4CCC(C)(O)C4)cc3)CC2)nc2ccccc21 (centres undefined) | 80 (≈ 36.9 µg/mL) | > 6000 | – |
| Cn1c(NC2CCN(CCc3ccc(-c4nc(C(=O)O)no4)cc3)CC2)nc2ccccc21 | 120 (≈ 53.6 µg/mL) | > 6000 | IC50 [4]: > 30000 nM |
| Cc1noc(-c2ccc(CCN3CCC(Nc4nc5ccccc5n4Cc4ccc(C(F)(F)F)cc4)CC3)cc2)n1 | 10 (≈ 5.61 µg/mL) | 30 | IC50 (Plasmodium falciparum [2]): 104 nM; IC50 at 48 h ([3]; CHO cells): 3330 nM; selectivity ratio [5]: 111 |
| Cn1c(NC2CCN(CCc3ccc(C(=O)O)cc3)CC2)nc2ccccc21 | 160 (≈ 60.6 µg/mL) | > 6000 | – |
| Cc1noc(-c2ccc(CCN3CCC(Nc4nc5ccccc5n4Cc4ccc(C(F)(F)F)nc4)CC3)cc2)n1 | 40 (≈ 22.5 µg/mL) | 44 | IC50 (Plasmodium falciparum [2]): 173 nM; IC50 at 48 h ([3]; CHO cells): 5630 nM; IC50 [4]: 250 nM; selectivity ratio [5]: 128; inhibition (Hemozoin): Active |
| N#Cc1ccc(Cn2c(NC3CCN(CCc4ccc(-c5noc(C(F)(F)F)n5)cc4)CC3)nc3ccccc32)cc1 | 20 (≈ 11.4 µg/mL) | 21 | IC50 (Plasmodium falciparum [2]): 49 nM; IC50 at 48 h ([3]; CHO cells): 3850 nM; selectivity ratio [5]: 175; inhibition (Hemozoin): Active |
| COc1ccc(CCN2CCC(Nc3nc4ccccc4n3Cc3ccc(F)cc3)CC2)cc1 [ASTEMIZOLE] | 40 (≈ 18.3 µg/mL) | – | Activity (HepG2): Non-Toxic |
| Cc1nc(-c2ccc(CCN3CCC(Nc4nc5ccccc5n4Cc4ccc(C#N)cc4)CC3)cc2)no1 | 40 (≈ 20.7 µg/mL) | 51 | IC50 (Plasmodium falciparum [2]): 174 nM; IC50 at 48 h ([3]; CHO cells): 5870 nM; selectivity ratio [5]: 115 |
| CCN(CC)CCCC(C)Nc1ccnc2cc(Cl)ccc12 (centres undefined) [CHLOROQUINE] | – | – | IC50 (Hemozoin): 22000 nM |
| Cc1noc(-c2ccc(CCN3CCC(Nc4nc5ccccc5n4Cc4ccc(C#N)cc4)CC3)cc2)n1 | – | 97 | IC50 (Plasmodium falciparum [2]): 178 nM; IC50 at 48 h ([3]; cho): 19700 nM |
| CSCc1noc(-c2ccc(CCN3CCC(Nc4nc5ccccc5n4C)CC3)cc2)n1 | 80 (≈ 37 µg/mL) | 383 | – |
| N#Cc1ccc(Cn2c(NC3CCN(CCc4ccc(-c5nc(C(F)(F)F)no5)cc4)CC3)nc3ccccc32)cc1 | 10 (≈ 5.72 µg/mL) | 22 | IC50 (Plasmodium falciparum [2]): 27 nM; IC50 at 48 h ([3]; CHO cells): 750 nM; IC50 [4]: 470 nM; selectivity ratio [5]: 34; inhibition (Hemozoin): Active |
| N#Cc1ccc(Cn2c(NC3CCN(CCc4ccc(-c5ncon5)cc4)CC3)nc3ccccc32)cc1 | 40 (≈ 20.1 µg/mL) | 89 | IC50 (Plasmodium falciparum [2]): 399 nM; IC50 at 48 h ([3]; CHO cells): 16600 nM; selectivity ratio [5]: 187 |
| Cn1c(NC2CCN(CCc3ccc(C(=O)N4CCNCC4)cc3)CC2)nc2ccccc21 | 120 (≈ 53.6 µg/mL) | 3410 | IC50 [4]: > 30000 nM |
| CCN(CC)Cc1cc(Nc2ccnc3cc(Cl)ccc23)ccc1O [AMODIAQUINE] | – | – | IC50 (Hemozoin): 10000 nM |
| Cc1noc(-c2ccc(CCN3CCC(Nc4nc5cc(Br)ccc5n4C)CC3)cc2)n1 | 80 (≈ 39.6 µg/mL) | 720 | – |
| COC(=O)c1ccc(CCN2CCC(Nc3nc4ccccc4n3C)CC2)cc1 | 120 (≈ 47.1 µg/mL) | 1450 | – |
| Cc1noc(-c2ccc(CCN3CCC(Nc4nc5ccccc5n4CC4CCCCC4)CC3)cc2)n1 | 80 (≈ 39.9 µg/mL) | 93 | IC50 (Plasmodium falciparum [2]): 156 nM; IC50 at 48 h ([3]; CHO cells): 44400 nM; IC50 [4]: 890 nM; selectivity ratio [5]: 477 |
| COc1ccc2c(c1)nc(NC1CCN(CCc3ccc(-c4nc(C)no4)cc3)CC1)n2C | 80 (≈ 35.7 µg/mL) | 309 | – |
| Cn1c(NC2CCN(CCc3ccc(C(=O)N4CCOCC4)cc3)CC2)nc2ccccc21 | 80 (≈ 35.8 µg/mL) | > 6000 | – |
| C[C@@H]1CN=C(c2ccc(CCN3CCC(Nc4nc5ccccc5n4Cc4ccc(C#N)cc4)CC3)cc2)O1 | 60 (≈ 31.1 µg/mL) | 104 | IC50 (Plasmodium falciparum [2]): 352 nM |
| C[C@H]1COC(c2ccc(CCN3CCC(Nc4nc5ccccc5n4Cc4ccc(C#N)cc4)CC3)cc2)=N1 | 20 (≈ 10.4 µg/mL) | 74 | IC50 (Plasmodium falciparum [2]): 263 nM; IC50 at 48 h ([3]; CHO cells): 38900 nM; selectivity ratio [5]: 525 |
| Cc1noc(-c2ccc(CCN3CCC(Nc4nc5cc(C(=O)O)ccc5n4C)CC3)cc2)n1 | 160 (≈ 73.7 µg/mL) | > 6000 | – |
| Cn1c(NC2CCN(CCc3ccc(C(=O)NC4(CO)CC4)cc3)CC2)nc2ccccc21 | 60 (≈ 26.9 µg/mL) | 1730 | IC50 [4]: > 30000 nM |

More lines, main results first:

| solubility kinetic at 2 h (physchem) [µM] | IC50 (Plasmodium falciparum [1]) [nM] | SMILES | other results |
| --- | --- | --- | --- |
| 80 (≈ 35.3 µg/mL) | 611 | Cc1noc(-c2ccc(CCN3CCC(Nc4nc5cc(C#N)ccc5n4C)CC3)cc2)n1 | – |
| 60 (≈ 29.2 µg/mL) | 1280 | Cn1c(NC2CCN(CCc3ccc(C(=O)N4CCN5CCCC5C4)cc3)CC2)nc2ccccc21 (centres undefined) | – |
| 40 (≈ 19.4 µg/mL) | 422 | Cc1noc(-c2ccc(CCN3CCC(Nc4nc5cc(C(F)(F)F)ccc5n4C)CC3)cc2)n1 | – |
| 60 (≈ 26.7 µg/mL) | 163 | Cc1noc(-c2ccc(CCN3CCC(Nc4nc5cc(C)c(C)cc5n4C)CC3)cc2)n1 | – |
| 60 (≈ 26.7 µg/mL) | 492 | CC(C)c1noc(-c2ccc(CCN3CCC(Nc4nc5ccccc5n4C)CC3)cc2)n1 | – |
| 80 (≈ 36.2 µg/mL) | 1160 | Cc1noc(-c2ccc(CCN3CCC(Nc4nc5cc(F)c(F)cc5n4C)CC3)cc2)n1 | – |
| 80 (≈ 34.8 µg/mL) | 834 | Cc1noc(-c2ccc(CCN3CCC(Nc4nc5cc(F)ccc5n4C)CC3)cc2)n1 | IC50 [4]: 28700 nM |
| 80 (≈ 35.8 µg/mL) | 3990 | Cn1c(NC2CCN(CCc3ccc(C(=O)N4CCC(O)C4)cc3)CC2)nc2ccccc21 (centres undefined) | – |
| 80 (≈ 33.4 µg/mL) | 2610 | C=CCNC(=O)c1ccc(CCN2CCC(Nc3nc4ccccc4n3C)CC2)cc1 | – |
| 120 (≈ 56.9 µg/mL) | 496 | COC(=O)c1ccc2c(c1)nc(NC1CCN(CCc3ccc(-c4nc(C)no4)cc3)CC1)n2C | IC50 [4]: 490 nM |
| 60 (≈ 26.6 µg/mL) | 484 | Cn1c(NC2CCN(CCc3ccc(-c4nc(C5CC5)no4)cc3)CC2)nc2ccccc21 | – |
| 100 (≈ 42.1 µg/mL) | > 6000 | Cn1c(NC2CCN(CCc3ccc(C(=O)NCCN)cc3)CC2)nc2ccccc21 | – |
| 80 (≈ 38.8 µg/mL) | 514 | Cc1noc(-c2ccc(CCN3CCC(Nc4nc5cc(Cl)c(Cl)cc5n4C)CC3)cc2)n1 | – |
| 120 (≈ 55.2 µg/mL) | 831 | CN(C)Cc1noc(-c2ccc(CCN3CCC(Nc4nc5ccccc5n4C)CC3)cc2)n1 | – |
| 20 (≈ 10.4 µg/mL) | 519 | Cc1nnc(-c2ccc(CCN3CCC(Nc4nc5ccccc5n4Cc4ccc(C#N)cc4)CC3)cc2)o1 | – |
| 20 (≈ 8.89 µg/mL) | 702 | Cc1noc(-c2ccc(CCN3CCC(Nc4nc5ccccc5n4C(C)C)CC3)cc2)n1 | – |
| 20 (≈ 10.7 µg/mL) | 460 | Cc1noc(-c2ccc(CCN3CCC(Nc4nc5ccccc5n4CC4CCC(F)(F)CC4)CC3)cc2)n1 | – |
| 100 (≈ 43.3 µg/mL) | 567 | Cn1c(NC2CCN(CCc3ccc(-c4nc(CO)no4)cc3)CC2)nc2ccccc21 | – |
| – | 448 | Cc1noc(-c2ccc(CCN3CC[C@@H](Nc4nc5ccccc5n4Cc4ccc(C#N)cc4)C3)cc2)n1 | – |
| 120 (≈ 50.6 µg/mL) | 4170 | Cn1c(NC2CCN(CCc3ccc(C(=O)NCCO)cc3)CC2)nc2ccccc21 | – |
| – | 515 | Cc1noc(-c2ccc(CCN3CC[C@H](Nc4nc5ccccc5n4Cc4ccc(C#N)cc4)C3)cc2)n1 | – |
